Our source for the IC50 values is US11241428B2, “Heteroaryl amide derivatives as selective inhibitors of histone deacetylases 1 and/or 2(HDAC1-2)” (Medibiofarma, S.L., priority 2017, dated 2022).

Test [1] deals with HDAC2 (Homo sapiens (Human), UniProt Q92769). The experiment in a line: biochemical HDAC assay (Reaction Biology Corp.), HDAC2. To be noted: fluorogenic peptide RHKK(Ac)AMC; 10-dose, 3-fold dilution from 10 μM. Here is the method: (§1) The inhibitory activities of compounds of present invention were determined using biochemical HDAC assays (Reaction Biology Corp. biochemical assay services). Compound with indicated doses was tested in the biochemical assays of HDAC 1, HDAC2, HDAC3, HDAC4, HDAC5, HDAC6, HDAC7, HDAC 8, HDAC9, HDAC10, and HDAC11 enzyme.
(§2) Compounds were tested in singlicate 10-dose IC50 mode with 3-fold serial dilution starting at 10 μM against 11 HDACs. HDAC reference compounds Trichostatin A (TSA) and TMP269 were tested in a 10-dose IC50 with 3-fold serial dilution starting at 10 μM.
(§3) Substrate for HDAC1,2,3,6,10: Fluorogenic peptide from p53 residues 379-382 (RHKK(Ac)AMC). Substrate for HDAC4,5,7,9, and 11: Fluorogenic HDAC Class2a Substrate (Trifluoroacetyl Lysine). Substrate for HDAC 8: Fluorogenic peptide from p53 residues 379-382 (RHK(Ac)K(Ac)AMC).
(§4) General Reaction Procedure: (Standard IC50 determination) • a. 2× enzyme was added to wells of reaction plate except to No Enzyme (No En) control wells. Add buffer in No En wells. • b. Compounds to be tested in 100% DMSO were added to the enzyme mixture by Acoustic technology (Echo550; nanoliter range). The mixture was spinned down and preincubated. • c. 2× Substrate Mixture (Fluorogenic HDAC Substrate and co-factor (500 μM of Nicotinamide adenine dinucleotide (NAD<+>) in all Sirt assay) were added to all reaction wells to initiate the reaction. The plates were spinned and shaken. • d. The plates were incubated for 1-2 hr. at 30° C. with seal. • e. Developer with Trichostatin A (or TMP269 or NAD<+>) was added to stop the reaction and to generate fluorescent color. • f. Fluorescence was read (excitatory, 360; emission, 460) using the EnVision Multilabel Plate Reader (Perkin Elmer) • g. Endpoint reading was taken for analysis after the development reaches plateau.
(§5) Data Analysis: The percentages of enzyme activity (relative to DMSO controls) and IC50 values were calculated using the GraphPad Prism 4 program based on a sigmoidal dose-response equation. The blank (DMSO) value was entered as 1.00E-12 of concentration for curve fitting.

Test [2] concerns the target HDAC10 (Homo sapiens (Human), UniProt Q969S8). The experiment in a line: biochemical HDAC assay (Reaction Biology Corp.), HDAC10. Conditions: fluorogenic peptide RHKK(Ac)AMC; 10-dose, 3-fold dilution from 10 μM. Here is the method: as §1, §2, §3, §4, §5
The target in test [3] is HDAC3 (Homo sapiens (Human), UniProt O15379). In words: biochemical HDAC assay (Reaction Biology Corp.), HDAC3. Conditions: fluorogenic peptide RHKK(Ac)AMC; 10-dose, 3-fold dilution from 10 μM. The protocol: as §1, §2, §3, §4, §5
Test [4] concerns the target HDAC 1 (Homo sapiens (Human), UniProt Q13547). In words: biochemical HDAC assay (Reaction Biology Corp.), HDAC1. Conditions: fluorogenic peptide RHKK(Ac)AMC; 10-dose, 3-fold dilution from 10 μM. Here is the method:
The inhibitory activities of compounds of present invention were determined using biochemical HDAC assays (Reaction Biology Corp. biochemical assay services). Compound with indicated doses was tested in the biochemical assays of HDAC 1, HDAC2, HDAC3, HDAC4, HDAC5, HDAC6, HDAC7, HDAC 8, HDAC9, HDAC10, and HDAC11 enzyme. Compounds were tested in singlicate 10-dose IC50 mode with 3-fold serial dilution starting at 10 μM against 11 HDACs. HDAC reference compounds Trichostatin A (TSA) and TMP269 were tested in a 10-dose IC50 with 3-fold serial dilution starting at 10 μM. Substrate for HDAC1,2,3,6,10: Fluorogenic peptide from p53 residues 379-382 (RHKK(Ac)AMC). Substrate for HDAC4,5,7,9, and 11: Fluorogenic HDAC Class2a Substrate (Trifluoroacetyl Lysine). Substrate for HDAC 8: Fluorogenic peptide from p53 residues 379-382 (RHK(Ac)K(Ac)AMC). General Reaction Procedure: (Standard IC50 determination) • a. 2× enzyme was added to wells of reaction plate except to No Enzyme (No En) control wells. Add buffer in No En wells. • b. Compounds to be tested in 100% DMSO were added to the enzyme mixture by Acoustic technology (Echo550; nanoliter range). The mixture was spinned down and preincubated. • c. 2× Substrate Mixture (Fluorogenic HDAC Substrate and co-factor (500 μM of Nicotinamide adenine dinucleotide (NAD<+>) in all Sirt assay) were added to all reaction wells to initiate the reaction. The plates were spinned and shaken. • d. The plates were incubated for 1-2 hr. at 30° C. with seal. • e. Developer with Trichostatin A (or TMP269 or NAD<+>) was added to stop the reaction and to generate fluorescent color. • f. Fluorescence was read (excitatory, 360; emission, 460) using the EnVision Multilabel Plate Reader (Perkin Elmer) • g. Endpoint reading was taken for analysis after the development reaches plateau. Data Analysis: The percentages of enzyme activity (relative to DMSO controls) and IC50 values were calculated using the GraphPad Prism 4 program based on a sigmoidal dose-response equation. The blank (DMSO) value was entered as 1.00E-12 of concentration for curve fitting.

The target in test [5] is HDAC8 (Homo sapiens (Human), UniProt Q9BY41). The experiment in a line: biochemical HDAC assay (Reaction Biology Corp.), HDAC8. Conditions: fluorogenic peptide RHK(Ac)K(Ac)AMC; 10-dose, 3-fold dilution from 10 μM. The protocol: as §1, §2, §3, §4, §5
In test [6] the target is HDAC6 (Homo sapiens (Human), UniProt Q9UBN7). In words: biochemical HDAC assay (Reaction Biology Corp.), HDAC6. Conditions: fluorogenic peptide RHKK(Ac)AMC; 10-dose, 3-fold dilution from 10 μM. The protocol:
as §1, §2, §3, §4, §5

Sequence of HDAC 1 (Q13547 whole entry, the tested form may be a part): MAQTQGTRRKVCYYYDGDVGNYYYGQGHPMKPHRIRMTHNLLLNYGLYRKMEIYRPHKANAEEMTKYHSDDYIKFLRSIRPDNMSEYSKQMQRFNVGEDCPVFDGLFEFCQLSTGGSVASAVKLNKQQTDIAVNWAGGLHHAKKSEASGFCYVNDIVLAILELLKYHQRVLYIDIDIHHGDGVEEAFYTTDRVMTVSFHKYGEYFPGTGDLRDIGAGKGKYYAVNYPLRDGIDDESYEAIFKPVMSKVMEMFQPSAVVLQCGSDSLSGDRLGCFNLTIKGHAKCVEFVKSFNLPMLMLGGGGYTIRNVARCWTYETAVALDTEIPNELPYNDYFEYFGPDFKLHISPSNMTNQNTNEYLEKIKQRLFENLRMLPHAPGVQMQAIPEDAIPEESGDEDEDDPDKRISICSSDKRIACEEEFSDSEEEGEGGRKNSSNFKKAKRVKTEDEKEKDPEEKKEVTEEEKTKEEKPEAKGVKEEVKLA
Sequence of HDAC6 (Q9UBN7 whole entry): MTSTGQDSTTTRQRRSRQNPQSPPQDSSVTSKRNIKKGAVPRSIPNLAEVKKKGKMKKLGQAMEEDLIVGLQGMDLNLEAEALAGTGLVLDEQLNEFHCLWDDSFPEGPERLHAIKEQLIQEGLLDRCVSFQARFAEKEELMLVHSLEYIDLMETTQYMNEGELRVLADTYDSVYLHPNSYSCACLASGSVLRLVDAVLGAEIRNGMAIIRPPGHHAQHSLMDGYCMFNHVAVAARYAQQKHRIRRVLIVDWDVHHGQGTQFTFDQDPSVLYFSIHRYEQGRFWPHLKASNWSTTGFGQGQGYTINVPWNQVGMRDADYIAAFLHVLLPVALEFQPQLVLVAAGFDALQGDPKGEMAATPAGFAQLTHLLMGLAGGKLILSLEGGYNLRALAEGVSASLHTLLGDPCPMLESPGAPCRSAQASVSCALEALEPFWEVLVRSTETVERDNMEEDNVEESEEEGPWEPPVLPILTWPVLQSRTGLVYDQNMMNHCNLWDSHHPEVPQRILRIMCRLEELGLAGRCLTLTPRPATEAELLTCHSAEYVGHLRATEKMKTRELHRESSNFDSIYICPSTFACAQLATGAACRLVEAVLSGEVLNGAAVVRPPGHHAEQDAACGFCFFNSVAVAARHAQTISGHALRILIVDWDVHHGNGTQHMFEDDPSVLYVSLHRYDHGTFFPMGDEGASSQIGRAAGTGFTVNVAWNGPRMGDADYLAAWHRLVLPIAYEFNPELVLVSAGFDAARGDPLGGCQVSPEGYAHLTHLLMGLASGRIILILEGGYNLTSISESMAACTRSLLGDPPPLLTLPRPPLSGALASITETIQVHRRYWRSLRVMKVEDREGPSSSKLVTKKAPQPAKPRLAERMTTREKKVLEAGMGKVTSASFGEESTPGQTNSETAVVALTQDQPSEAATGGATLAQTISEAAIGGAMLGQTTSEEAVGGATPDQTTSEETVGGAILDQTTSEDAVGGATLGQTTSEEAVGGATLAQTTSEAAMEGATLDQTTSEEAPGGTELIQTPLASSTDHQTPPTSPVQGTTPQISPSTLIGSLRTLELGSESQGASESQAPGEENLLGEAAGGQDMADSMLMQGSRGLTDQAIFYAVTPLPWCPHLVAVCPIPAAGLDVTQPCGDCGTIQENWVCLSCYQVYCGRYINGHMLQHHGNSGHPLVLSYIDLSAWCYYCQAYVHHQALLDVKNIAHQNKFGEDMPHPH
Sequence of HDAC8 (Q9BY41 whole entry): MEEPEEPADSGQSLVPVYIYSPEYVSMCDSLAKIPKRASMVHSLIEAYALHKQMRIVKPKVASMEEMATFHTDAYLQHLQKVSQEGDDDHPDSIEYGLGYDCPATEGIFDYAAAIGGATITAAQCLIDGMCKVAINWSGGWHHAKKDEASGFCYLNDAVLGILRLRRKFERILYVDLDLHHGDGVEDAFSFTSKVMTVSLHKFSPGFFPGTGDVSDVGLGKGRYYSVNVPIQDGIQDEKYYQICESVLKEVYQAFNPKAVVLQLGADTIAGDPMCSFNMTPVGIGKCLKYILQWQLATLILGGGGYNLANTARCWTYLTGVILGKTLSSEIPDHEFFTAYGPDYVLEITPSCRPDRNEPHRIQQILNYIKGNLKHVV
Sequence of HDAC3 (O15379 whole entry): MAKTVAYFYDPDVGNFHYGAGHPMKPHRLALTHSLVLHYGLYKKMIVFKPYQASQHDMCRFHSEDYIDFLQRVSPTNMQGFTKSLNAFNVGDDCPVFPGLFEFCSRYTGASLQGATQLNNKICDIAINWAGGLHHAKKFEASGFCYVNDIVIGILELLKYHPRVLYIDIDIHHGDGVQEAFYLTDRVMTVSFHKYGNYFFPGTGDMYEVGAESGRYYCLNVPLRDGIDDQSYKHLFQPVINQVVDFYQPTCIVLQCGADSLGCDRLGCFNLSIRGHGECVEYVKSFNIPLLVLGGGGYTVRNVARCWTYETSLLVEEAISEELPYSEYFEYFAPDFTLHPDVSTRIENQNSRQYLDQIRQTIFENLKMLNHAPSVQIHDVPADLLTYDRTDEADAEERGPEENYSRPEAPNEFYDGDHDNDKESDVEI
Sequence of HDAC3 (Q9Y618 395-489 partner): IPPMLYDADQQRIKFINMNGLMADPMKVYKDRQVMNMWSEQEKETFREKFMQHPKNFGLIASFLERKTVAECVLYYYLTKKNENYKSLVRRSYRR
Sequence of HDAC10 (Q969S8 whole entry): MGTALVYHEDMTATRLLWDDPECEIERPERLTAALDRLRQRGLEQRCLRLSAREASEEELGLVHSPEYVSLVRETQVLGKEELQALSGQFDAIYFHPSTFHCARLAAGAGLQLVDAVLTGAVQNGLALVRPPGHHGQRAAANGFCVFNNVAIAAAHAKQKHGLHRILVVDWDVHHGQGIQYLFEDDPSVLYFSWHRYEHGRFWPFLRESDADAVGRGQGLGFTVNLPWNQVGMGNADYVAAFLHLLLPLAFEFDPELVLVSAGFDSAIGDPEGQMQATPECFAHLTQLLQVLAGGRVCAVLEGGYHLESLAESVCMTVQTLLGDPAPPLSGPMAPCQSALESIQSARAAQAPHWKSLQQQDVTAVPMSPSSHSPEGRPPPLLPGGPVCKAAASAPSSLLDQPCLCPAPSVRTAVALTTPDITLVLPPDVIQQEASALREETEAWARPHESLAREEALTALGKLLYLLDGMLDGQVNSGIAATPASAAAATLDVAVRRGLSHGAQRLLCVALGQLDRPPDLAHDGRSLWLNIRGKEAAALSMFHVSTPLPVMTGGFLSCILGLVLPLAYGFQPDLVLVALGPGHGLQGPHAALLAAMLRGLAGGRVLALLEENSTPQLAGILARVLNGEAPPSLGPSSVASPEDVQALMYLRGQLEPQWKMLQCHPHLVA
Sequence of HDAC2 (Q92769 whole entry): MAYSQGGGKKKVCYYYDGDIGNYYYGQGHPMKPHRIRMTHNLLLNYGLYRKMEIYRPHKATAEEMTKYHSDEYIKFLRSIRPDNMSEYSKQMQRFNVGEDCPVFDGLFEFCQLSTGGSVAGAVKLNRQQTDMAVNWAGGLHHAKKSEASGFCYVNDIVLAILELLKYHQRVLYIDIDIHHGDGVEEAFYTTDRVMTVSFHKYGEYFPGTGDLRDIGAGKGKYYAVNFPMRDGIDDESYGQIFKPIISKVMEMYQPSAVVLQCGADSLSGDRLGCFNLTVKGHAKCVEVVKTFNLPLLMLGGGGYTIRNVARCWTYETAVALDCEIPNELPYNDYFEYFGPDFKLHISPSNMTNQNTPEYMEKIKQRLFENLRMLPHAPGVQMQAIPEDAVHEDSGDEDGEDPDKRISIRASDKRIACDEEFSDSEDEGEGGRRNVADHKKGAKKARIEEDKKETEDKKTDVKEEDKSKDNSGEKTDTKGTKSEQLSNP

The IC50 is the concentration at which inhibition is half-maximal. Take `CN1CCN(c2ccc(C(=O)Nc3nc(-c4ccccc4)ccc3N)cn2)CC1` [Example 1, N-(3-amino-6-phenylpyridin-2-yl)-6-(4-methylpiperazin-1-yl)nicotinamide]: the IC50 in test [1] was < 200 nM.

For the molecule `Nc1ccc(-c2ccccc2)nc1NC(=O)c1cccnc1` [Example 2, N-(3-amino-6-phenylpyridin-2-yl)nicotinamide], the concentration for half-maximal inhibition (IC50) in test [1] was < 200 nM.

As for `Nc1ccc(-c2ccc(F)cc2)nc1NC(=O)c1cccnc1` [Example 3, N-(3-amino-6-(4-fluorophenyl)pyridin-2-yl)nicotinamide], the 50% inhibitory concentration (IC50) in test [1] is < 200 nM.

As for `Nc1ccc(-c2ccccc2)nc1NC(=O)c1ccc(N2CCOCC2)nc1` [Example 4, N-(3-amino-6-phenylpyridin-2-yl)-6-morpholinonicotinamide], the IC50 in test [1] was < 200 nM.

As to `Nc1ccc(-c2ccc(F)cc2)nc1NC(=O)c1ccc(N2CCOCC2)nc1` [Example 5, N-(3-amino-6-(4-fluorophenyl)pyridin-2-yl)-6-morpholinonicotinamide], the IC50 in test [2] was 1000 to 50000 nM; in test [3], ≥ 50000 nM; in test [4], < 200 nM; in test [1], < 200 nM; in test [5], ≥ 50000 nM.

On to `CN1CCN(c2ccc(C(=O)Nc3nc(-c4ccc(F)cc4)ccc3N)cn2)CC1` [Example 6, N-(3-amino-6-(4-fluorophenyl)pyridin-2-yl)-6-(4-methylpiperazin-1-yl)nicotinamide], for which the half-inhibitory concentration (IC50) was 1000 to 50000 nM in test [2]; ≥ 50000 nM in test [3]; < 200 nM in test [4]; ≥ 50000 nM in test [6]; < 200 nM in test [1]; ≥ 50000 nM in test [5].

As for `COc1ccc(-c2ccc(N)c(NC(=O)c3ccc(N4CCN(C)CC4)nc3)n2)cc1` [Example 7, N-(3-amino-6-(4-methoxyphenyl)pyridin-2-yl)-6-(4-methylpiperazin-1-yl)nicotinamide], in test [1], the IC50 fell in the range of 200 to 1000 nM.

The molecule `CN1CCN(c2ccc(C(=O)Nc3nc(-c4ccncc4)ccc3N)cn2)CC1` [Example 8, N-(5-amino-[2,4′-bipyridin]-6-yl)-6-(4-methylpiperazin-1-yl)nicotinamide] yielded a half-inhibitory concentration (IC50) in test [1] of 200 to 1000 nM.

`CN1CCN(c2ccc(C(=O)Nc3nc(-c4ccc(F)c(F)c4)ccc3N)cn2)CC1` [Example 9, N-(3-amino-6-(3,4-difluorophenyl)pyridin-2-yl)-6-(4-methylpiperazin-1-yl)nicotinamide] yielded an IC50 in test [1] of 200 to 1000 nM.

For the molecule `CN1CCN(c2ncc(C(=O)Nc3nc(-c4ccccc4)ccc3N)cn2)CC1` [Example 10, N-(3-amino-6-phenylpyridin-2-yl)-2-(4-methylpiperazin-1-yl)pyrimidine-5-carboxamide], the IC50 in test [1] is < 200 nM.

Turning to `Nc1ccc(-c2ccc(F)cc2)nc1NC(=O)c1cnc(N2CCOCC2)nc1` [Example 14, N-(3-amino-6-(4-fluorophenyl)pyridin-2-yl)-2-morpholinopyrimidine-5-carboxamide], in test [1], the concentration for half-maximal inhibition (IC50) was < 200 nM.

As to `CN1CCN(c2ncc(C(=O)Nc3nc(-c4ccc(F)cc4)ccc3N)cn2)CC1` [Example 15, N-(3-amino-6-(4-fluorophenyl)pyridin-2-yl)-2-(4-methylpiperazin-1-yl)pyrimidine-5-carboxamide], in test [1], the IC50 was < 200 nM.

As to `Nc1ccc(-c2ccccc2)nc1NC(=O)c1cnc(NC2CC2)nc1` [Example 16, N-(3-amino-6-phenylpyridin-2-yl)-2-(cyclopropylamino)pyrimidine-5-carboxamide], the 50% inhibitory concentration (IC50) in test [1] is < 200 nM.

Turning to `Nc1ccc(-c2ccc(F)cc2)nc1NC(=O)c1cnc(NC2CC2)nc1` [Example 17, N-(3-amino-6-(4-fluorophenyl)pyridin-2-yl)-2-(cyclopropylamino)pyrimidine-5-carboxamide], the IC50 in test [2] is ≥ 50000 nM; in test [3], ≥ 50000 nM; in test [4], 1000 to 50000 nM; in test [1], < 200 nM.

In turn, `Nc1ccc(-c2ccc(F)cc2)nc1NC(=O)c1ccc(-c2cccnc2)nc1` [Example 21, N-(3-amino-6-(4-fluorophenyl)pyridin-2-yl)-[2,3′-bipyridine]-5-carboxamide] gave an IC50 in test [1] of 200 to 1000 nM.

On to `N#Cc1cccc(-c2ccc(C(=O)Nc3nc(-c4ccc(F)cc4)ccc3N)cn2)c1` [Example 22, N-(3-amino-6-(4-fluorophenyl)pyridin-2-yl)-6-(3-cyanophenyl)nicotinamide], for which the IC50 in test [1] fell in the range of 200 to 1000 nM.

Take `Nc1ccc(-c2ccc(F)cc2)nc1NC(=O)c1ccc(N2CCNCC2)nc1` [Example 25, N-(3-amino-6-(4-fluorophenyl)pyridin-2-yl)-6-(piperazin-1-yl)nicotinamide]: the IC50 in test [2] is 1000 to 50000 nM; in test [3], ≥ 50000 nM; in test [4], 200 to 1000 nM; in test [6], 1000 to 50000 nM; in test [1], < 200 nM; in test [5] it was ≥ 50000 nM.

For the molecule `Nc1ccc(-c2ccc(F)cc2)nc1NC(=O)c1ccc(N2CCC(N)CC2)nc1` [Example 27, N-(3-amino-6-(4-fluorophenyl)pyridin-2-yl)-6-(4-aminopiperidin-1-yl)nicotinamide], the IC50 in test [2] is 1000 to 50000 nM; in test [3], ≥ 50000 nM; in test [4], < 200 nM; in test [6] it was 1000 to 50000 nM; in test [1], < 200 nM.

For `CN1CCN(c2ccc(C(=O)Nc3nc(-c4cccs4)ccc3N)cn2)CC1` [Example 29, N-(3-amino-6-(thiophen-2-yl)pyridin-2-yl)-6-(4-methylpiperazin-1-yl)nicotinamide], the IC50 in test [2] is 1000 to 50000 nM; in test [3], 1000 to 50000 nM; in test [4] it was < 200 nM; in test [6] it was 1000 to 50000 nM; in test [1] it was < 200 nM.

Take `CN1CCN(CCNc2ccc(C(=O)Nc3nc(-c4ccc(F)cc4)ccc3N)cn2)CC1` [Example 30, N-(3-amino-6-(4-fluorophenyl)pyridin-2-yl)-6-((2-(4-methylpiperazin-1-yl)ethyl)amino)nicotinamide]: the IC50 in test [1] was < 200 nM.

In the case of “N-(3-amino-6-(4-fluorophenyl)pyridin-2-yl)-6-(4-methylpiperazin-1-yl)nicotinamide [Example 13]”, in test [1], the concentration for half-maximal inhibition (IC50) was < 200 nM.
